Results from patent publication US20220386606A1, “SPECIFICALLY SUBSTITUTED 3-PHENYL-5-SPIROCYCLOPENTYL-3-PYRROLIN-2-ONES AND THEIR USE AS HERBICIDES” (Bayer Aktiengesellschaft, priority 2019, published 2022).

Experiments:
DIGSA [1] = experiment: Post-emergence herbicidal action against DIGSA; type: in vivo, Digitaria sanguinalis; conditions: 80 g/ha, visual assessment about 3 weeks after treatment vs untreated controls
Procedure, shortened: (§1)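 Weeds and crops grown in sandy loam in the greenhouse, treated post-emergence at the one-leaf stage (2–3 weeks after sowing). WP or EC formulations sprayed as aqueous suspension/emulsion at 600–800 l/ha water with 0.2% wetting agent. Visual % activity scored after about 3 weeks versus untreated controls (100% = dead, 0% = like control).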

ALOMY [2] = experiment: Post-emergence herbicidal action against ALOMY; type: in vivo, Alopecurus myosuroides; conditions: 80 g/ha, visual assessment after about 3 weeks
Procedure, shortened: as §1

LOLRI [3] = experiment: Post-emergence herbicidal action against LOLRI; type: in vivo, Lolium rigidum; conditions: 80 g/ha, visual assessment about 3 weeks after treatment vs untreated controls
Procedure, shortened: as §1

ECHCG [4] = experiment: Post-emergence herbicidal action against ECHCG; type: in vivo, Echinochloa crus-galli; conditions: 80 g/ha, visual assessment about 3 weeks after treatment vs untreated controls
Procedure, shortened: as §1

SETVI [5] = experiment: Post-emergence herbicidal action against SETVI; type: in vivo, Setaria viridis; conditions: 80 g/ha, visual assessment about 3 weeks after treatment vs untreated controls
Procedure, shortened: as §1

HORMU = experiment: Post-emergence herbicidal action against HORMU; type: in vivo, Hordeum murinum; conditions: 80 g/ha, visual assessment about 3 weeks after treatment vs untreated controls
Method: Seeds of monocotyledonous and dicotyledonous weed and crop plants are laid out in sandy loam soil in wood-fiber pots, covered with soil and cultivated in a greenhouse under good growth conditions. 2 to 3 weeks after sowing, the test plants are treated at the one-leaf stage. The compounds of the invention, formulated in the form of wettable powders (WP) or as emulsion concentrates (EC), are then sprayed onto the green parts of the plants as aqueous suspension or emulsion at a water application rate equating to 600 to 800 l/ha with addition of 0.2% wetting agent. After the test plants have been left to stand in the greenhouse under optimal growth conditions for about 3 weeks, the action of the preparations is assessed visually in comparison to untreated controls (herbicidal action in percent (%): 100% activity=the plants have died, 0% activity=like control plants).

AVEFA [6] = experiment: Post-emergence herbicidal action against AVEFA; type: in vivo, Avena fatua; conditions: 80 g/ha, visual assessment after about 3 weeks
Procedure, shortened: as §1

ECHCG [7] = experiment: Pre-emergence herbicidal action against ECHCG; type: in vivo, Echinochloa crus-galli; conditions: 320 g/ha, scored visually after 3 weeks vs untreated controls
Procedure, shortened: (§2)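 Sandy loam, wood-fiber pots, seeds covered with soil. Spray onto soil surface: aqueous WP/EC, 600 to 800 L/ha, 0.2% wetting agent. Greenhouse 3 weeks; visual % score vs untreated controls.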

LOLRI [8] = experiment: Pre-emergence herbicidal action against LOLRI (Table 8, titled post-emergence at 320 g/ha); type: in vivo, Lolium rigidum; conditions: table stands in the pre-emergence section
Procedure, shortened: as §2

DIGSA [9] = experiment: Pre-emergence herbicidal action against DIGSA; type: in vivo, Digitaria sanguinalis; conditions: 320 g/ha, scored visually after 3 weeks vs untreated controls
Procedure, shortened: as §2

MATIN = experiment: Pre-emergence herbicidal action against MATIN; type: in vivo; conditions: 320 g/ha
Procedure, shortened: as §2

VERPE = experiment: Pre-emergence herbicidal action against VERPE; type: in vivo, Veronica persica; conditions: 320 g/ha
Procedure, shortened: as §2

VIOTR = experiment: Pre-emergence herbicidal action against VIOTR; type: in vivo, Viola tricolor; conditions: 320 g/ha
Procedure, shortened: as §2

AMARE = experiment: Pre-emergence herbicidal action against AMARE; type: in vivo, Amaranthus retroflexus; conditions: 320 g/ha
Procedure, shortened: as §2

SETVI [10] = experiment: Pre-emergence herbicidal action against SETVI; type: in vivo, Setaria viridis; conditions: 320 g/ha, scored visually after 3 weeks vs untreated controls
Procedure, shortened: as §2

AVEFA [11] = experiment: Pre-emergence herbicidal action against AVEFA; type: in vivo, Avena fatua; conditions: 320 g/ha, scored visually after 3 weeks vs untreated controls
Procedure, shortened: as §2

POLCO = experiment: Pre-emergence herbicidal action against POLCO; type: in vivo, Polygonum convolvulus; conditions: 320 g/ha
Text: Seeds of monocotyledonous and dicotyledonous weed plants and crop plants are laid out in sandy loam soil in wood-fiber pots and covered with soil. The compounds of the invention, formulated in the form of wettable powders (WP) or as emulsion concentrates (EC), are then applied to the surface of the covering soil as aqueous suspension or emulsion at a water application rate equating to 600 to 800 L/ha with addition of 0.2% wetting agent.
After the treatment, the pots are placed in a greenhouse and kept under good growth conditions for the trial plants. The damage to the test plants is scored visually after a test period of 3 weeks by comparison with untreated controls (herbicidal activity in percent (%): 100% activity=the plants have died, 0% activity=like control plants).

ALOMY [12] = experiment: Pre-emergence herbicidal action against ALOMY; type: in vivo, Alopecurus myosuroides; conditions: 320 g/ha, scored visually after 3 weeks vs untreated controls
Procedure, shortened: as §2

SMILES	Post-emergence action against DIGSA in % (DIGSA [1]) [%]	Post-emergence action against ALOMY in % (ALOMY [2]) [%]	Post-emergence action against LOLRI in % (LOLRI [3]) [%]	Post-emergence action against ECHCG in % (ECHCG [4]) [%]	Post-emergence action against SETVI in % (SETVI [5]) [%]	Post-emergence action against HORMU in % (HORMU) [%]	Post-emergence action against AVEFA in % (AVEFA [6]) [%]	Pre-emergence action against ECHCG in % (ECHCG [7]) [%]	Pre-emergence herbicidal action against LOLRI in % (LOLRI [8]) [%]	Pre-emergence action against DIGSA in % (DIGSA [9]) [%]	Pre-emergence action against MATIN in % (MATIN) [%]	Pre-emergence action against VERPE in % (VERPE) [%]	Pre-emergence action against VIOTR in % (VIOTR) [%]	Pre-emergence action against AMARE in % (AMARE) [%]	Pre-emergence action against SETVI in % (SETVI [10]) [%]	Pre-emergence action against AVEFA in % (AVEFA [11]) [%]	Pre-emergence action against POLCO in % (POLCO) [%]	Pre-emergence action against ALOMY in % (ALOMY [12]) [%]
C#Cc1cc(Cl)c(C2=C(O)C3(CCC(COC)C3)NC2=O)c(OC)c1 (stereo not drawn) [Example I-01]	90	100	100	90	90	100	90	–	–	–	–	–	–	–	–	–	–	–
CC#Cc1cc(Cl)c(C2=C(O)C3(CCC(COCC)C3)NC2=O)c(CC)c1 (stereo not drawn) [Example I-03]	100	100	100	100	100	100	100	–	–	–	–	–	–	–	–	–	–	–
CC#Cc1cc(Cl)c(C2=C(O)C3(CCC(COC)C3)NC2=O)c(CC)c1 (stereo not drawn) [Example I-04]	100	100	100	100	100	100	100	–	–	–	–	–	–	–	–	–	–	–
CC#Cc1cc(Cl)c(C2=C(O)C3(CCC(COCC)C3)NC2=O)c(OC)c1 (stereo not drawn) [Example I-07]	100	100	100	100	100	100	100	–	–	–	–	–	–	–	–	–	–	–
C#Cc1cc(Cl)c(C2=C(O)C3(CCC(COCC)C3)NC2=O)c(OC)c1 (stereo not drawn) [Example I-08]	80	80	90	–	90	80	90	–	–	–	–	–	–	–	–	–	–	–
CC#Cc1cc(C)c(C2=C(O)C3(CCC(COCCOC)C3)NC2=O)c(Cl)c1 (stereo not drawn) [Example I-51]	100	100	90	100	100	–	100	100	100	100	100	100	100	100	100	100	80	100
